According to ChEMBL document CHEMBL5500347, “An update on antibacterial AlkylGuanidino Ureas: Design of new derivatives, synergism with colistin and data analysis of the whole library” (2024):
Activity calls are given as the source filed them. No cut-off for these calls is given here.

Experiments:
Bacillus subtilis [1] = assay: Antibacterial activity against Bacillus subtilis ATCC 6633 incubated for 18 to 24 hrs by CLSI based microdilution broth method; type: functional; conditions: time 18-24 hrs
Enterococcus faecalis [2] = assay: Antibacterial activity against Enterococcus faecalis ATCC 19433 incubated for 18 to 24 hrs by CLSI based microdilution broth method; type: functional; conditions: time 18-24 hrs
Streptococcus pyogenes [3] = assay: Antibacterial activity against Streptococcus pyogenes ATCC 12344 incubated for 18 to 24 hrs by CLSI based microdilution broth method; type: functional; conditions: time 18-24 hrs
Staphylococcus aureus [4] = assay: Antibacterial activity against Staphylococcus aureus ATCC 25923 incubated for 18 to 24 hrs by CLSI based microdilution broth method; type: functional; conditions: time 18-24 hrs
Escherichia coli [5] = assay: Antibacterial activity against Escherichia coli CCUGT incubated for 18 to 24 hrs by CLSI based microdilution broth method; type: functional; conditions: Escherichia coli, CCUGT; time 18-24 hrs; read-out: MIC
Klebsiella pneumoniae [6] = assay: Antibacterial activity against Klebsiella pneumoniae ATCC 13833 incubated for 18 to 24 hrs by CLSI based microdilution broth method; type: functional; conditions: Klebsiella pneumoniae, ATCC 13833; time 18-24 hrs; read-out: MIC
Acinetobacter baumannii [7] = assay: Antibacterial activity against Acinetobacter baumannii ATCC 17978 at 256 ug/ml incubated for 18 to 24 hrs by CLSI based microdilution broth method; type: functional, organism-based; conditions: dose 256.0 µg/ml, time 18-24 hrs
Pseudomonas aeruginosa [8] = assay: Antibacterial activity against Pseudomonas aeruginosa ATCC 27853 at 256 ug/ml incubated for 18 to 24 hrs by CLSI based microdilution broth method; type: functional, organism-based; conditions: dose 256.0 µg/ml, time 18-24 hrs
Escherichia coli [9] = assay: Antibacterial activity against Escherichia coli CCUGT at 256 ug/ml incubated for 18 to 24 hrs by CLSI based microdilution broth method; type: functional, organism-based; conditions: dose 256.0 µg/ml, time 18-24 hrs
Klebsiella pneumoniae [10] = assay: Antibacterial activity against Klebsiella pneumoniae ATCC 13833 at 256 ug/ml incubated for 18 to 24 hrs by CLSI based microdilution broth method; type: functional, organism-based; conditions: dose 256.0 µg/ml, time 18-24 hrs
Acinetobacter baumannii [11] = assay: Antibacterial activity against Acinetobacter baumannii ATCC 17978 incubated for 18 to 24 hrs by CLSI based microdilution broth method; type: functional; conditions: Acinetobacter baumannii, ATCC 17978; time 18-24 hrs
Pseudomonas aeruginosa [12] = assay: Antibacterial activity against Pseudomonas aeruginosa ATCC 27853 incubated for 18 to 24 hrs by CLSI based microdilution broth method; type: functional; conditions: Pseudomonas aeruginosa, ATCC 27853; time 18-24 hrs
Escherichia coli [13] = assay: Synergistic antibacterial activity against Escherichia coli CCUGT incubated for 18 to 24 hrs in presence of colistin by CLSI based microdilution broth method; type: functional; conditions: time 18-24 hrs
Escherichia coli [14] = assay: Synergistic antibacterial activity against Escherichia coli CCUGT assessed as potentiation fold by measuring MIC to MAC ratio incubated for 18 to 24 hrs in presence of colistin by CLSI based microdilution broth method; type: functional; conditions: time 18-24 hrs
Klebsiella pneumoniae [15] = assay: Synergistic antibacterial activity against Klebsiella pneumoniae ATCC 13833 incubated for 18 to 24 hrs in presence of colistin by CLSI based microdilution broth method; type: functional; conditions: time 18-24 hrs
Klebsiella pneumoniae [16] = assay: Synergistic antibacterial activity against Klebsiella pneumoniae ATCC 13833 assessed as potentiation fold by measuring MIC to MAC ratio incubated for 18 to 24 hrs in presence of colistin by CLSI based microdilution broth method; type: functional; conditions: time 18-24 hrs
Pseudomonas aeruginosa [17] = assay: Synergistic antibacterial activity against Pseudomonas aeruginosa ATCC 27853 incubated for 18 to 24 hrs in presence of colistin by CLSI based microdilution broth method; type: functional; conditions: time 18-24 hrs
Pseudomonas aeruginosa [18] = assay: Synergistic antibacterial activity against Pseudomonas aeruginosa ATCC 27853 assessed as potentiation fold by measuring MIC to MAC ratio incubated for 18 to 24 hrs in presence of colistin by CLSI based microdilution broth method; type: functional; conditions: time 18-24 hrs
Acinetobacter baumannii [19] = assay: Synergistic antibacterial activity against Acinetobacter baumannii ATCC 17978 incubated for 18 to 24 hrs in presence of colistin by CLSI based microdilution broth method; type: functional; conditions: time 18-24 hrs
Acinetobacter baumannii [20] = assay: Synergistic antibacterial activity against Acinetobacter baumannii ATCC 17978 assessed as potentiation fold by measuring MIC to MAC ratio incubated for 18 to 24 hrs in presence of colistin by CLSI based microdilution broth method; type: functional; conditions: time 18-24 hrs
Acinetobacter baumannii [21] = assay: Antibacterial activity against Acinetobacter baumannii N50 incubated for 18 to 24 hrs by CLSI based microdilution broth method; type: functional; conditions: time 18-24 hrs
Acinetobacter baumannii [22] = assay: Synergistic antibacterial activity against Acinetobacter baumannii N50 incubated for 18 to 24 hrs in presence of colistin by CLSI based microdilution broth method; type: functional; conditions: time 18-24 hrs
Acinetobacter baumannii [23] = assay: Synergistic antibacterial activity against Acinetobacter baumannii N50 assessed as potentiation fold by measuring MIC to MAC ratio incubated for 18 to 24 hrs in presence of colistin by CLSI based microdilution broth method; type: functional; conditions: time 18-24 hrs
Bacillus subtilis [24] = assay: Antibacterial activity against Bacillus subtilis ATCC 6633 at 256 ug/ml incubated for 18 to 24 hrs by CLSI based microdilution broth method; type: functional, organism-based; conditions: dose 256.0 µg/ml, time 18-24 hrs
Enterococcus faecalis [25] = assay: Antibacterial activity against Enterococcus faecalis ATCC 19433 at 256 ug/ml incubated for 18 to 24 hrs by CLSI based microdilution broth method; type: functional, organism-based; conditions: dose 256.0 µg/ml, time 18-24 hrs
Streptococcus pyogenes [26] = assay: Antibacterial activity against Streptococcus pyogenes ATCC 12344 at 256 ug/ml incubated for 18 to 24 hrs by CLSI based microdilution broth method; type: functional, organism-based; conditions: dose 256.0 µg/ml, time 18-24 hrs
Staphylococcus aureus [27] = assay: Antibacterial activity against Staphylococcus aureus ATCC 25923 at 256 ug/ml incubated for 18 to 24 hrs by CLSI based microdilution broth method; type: functional, organism-based; conditions: dose 256.0 µg/ml, time 18-24 hrs

`C/C=C/CNC(=N)NCCCCCCCCNC(N)=O.O=C(O)C(F)(F)F` showed an MIC (Bacillus subtilis [1]) of 64 µg/mL, an MIC (Enterococcus faecalis [2]) of 64 µg/mL and an MIC (Streptococcus pyogenes [3]) of 32 µg/mL. It also gave an MIC (Staphylococcus aureus [4]) of 32 µg/mL, an MIC (Escherichia coli [5]) of 128 µg/mL and an MIC (Klebsiella pneumoniae [6]) of 128 µg/mL. For the same compound, the Activity (Acinetobacter baumannii [7]) was “inactive” and the Activity (Pseudomonas aeruginosa [8]) was “inactive”.

Compound `CNC(=N)NCCCCCCCCNC(N)=O.O=C(O)C(F)(F)F` has an MIC (Bacillus subtilis [1]) of 128 µg/mL, an MIC (Enterococcus faecalis [2]) of 128 µg/mL and an MIC (Streptococcus pyogenes [3]) of 64 µg/mL. The MIC (Staphylococcus aureus [4]) was 32 µg/mL, the Activity (Escherichia coli [9]) was “inactive” and the Activity (Klebsiella pneumoniae [10]) was “inactive”. For the same compound, the Activity (Acinetobacter baumannii [7]) was “inactive” and the Activity (Pseudomonas aeruginosa [8]) was “inactive”.

`O=C(O)C(F)(F)F.[N-]=[N+]=NCCCCCCCCN(CCCCCCCCNC(=N)N)C(=O)N(CCCCCCCCN=[N+]=[N-])CCCCCCCCNC(=N)N` showed an MIC (Bacillus subtilis [1]) of 8 µg/mL, an MIC (Enterococcus faecalis [2]) of 16 µg/mL and an MIC (Streptococcus pyogenes [3]) of 8 µg/mL. The MIC (Staphylococcus aureus [4]) was 2 µg/mL, the MIC (Escherichia coli [5]) was 32 µg/mL and the MIC (Klebsiella pneumoniae [6]) was 32 µg/mL. For the same compound, the MIC (Acinetobacter baumannii [11]) was 64 µg/mL, the MIC (Pseudomonas aeruginosa [12]) was > 256 µg/mL and the MAC (Escherichia coli [13]) was 32 µg/mL. For the same compound, the Ratio (Escherichia coli [14]) was 1, the MAC (Klebsiella pneumoniae [15]) was 2 µg/mL and the Ratio (Klebsiella pneumoniae [16]) was 16. The MAC (Pseudomonas aeruginosa [17]) was 16 µg/mL, the Ratio (Pseudomonas aeruginosa [18]) was >16 and the MAC (Acinetobacter baumannii [19]) was 64 µg/mL. The Ratio (Acinetobacter baumannii [20]) was 1, the MIC (Acinetobacter baumannii [21]) was 32 µg/mL and the MAC (Acinetobacter baumannii [22]) was 32 µg/mL. For the same compound, the Ratio (Acinetobacter baumannii [23]) was 1.

`[N-]=[N+]=NCCCCCCCCN(CCCCCCCCNC(c1ccccc1)(c1ccccc1)c1ccccc1)C(=O)N(CCCCCCCCN=[N+]=[N-])CCCCCCCCNC(c1ccccc1)(c1ccccc1)c1ccccc1` was tested, and the Activity (Bacillus subtilis [24]) was “inactive”, the Activity (Enterococcus faecalis [25]) was “inactive” and the Activity (Streptococcus pyogenes [26]) was “inactive”. For the same compound, the Activity (Staphylococcus aureus [27]) was “inactive”, the Activity (Escherichia coli [9]) was “inactive” and the Activity (Klebsiella pneumoniae [10]) was “inactive”. The Activity (Acinetobacter baumannii [7]) was “inactive” and the Activity (Pseudomonas aeruginosa [8]) was “inactive”.

For `N=C(N)NCCCCCCCCN(CCCCCCCCNC(=N)NCC1CC1)C(=O)NC(=N)NCCCCCCCCNCCCCCCCCNC(=N)NCC1CC1`, the MIC (Escherichia coli [5]) was > 256 µg/mL, the MIC (Klebsiella pneumoniae [6]) was > 256 µg/mL and the MIC (Acinetobacter baumannii [11]) was > 64 µg/mL. For the same compound, the MIC (Pseudomonas aeruginosa [12]) was > 256 µg/mL, the MAC (Escherichia coli [13]) was 0.5 µg/mL and the Ratio (Escherichia coli [14]) was >512. For the same compound, the MAC (Klebsiella pneumoniae [15]) was 1 µg/mL, the Ratio (Klebsiella pneumoniae [16]) was >256 and the MAC (Pseudomonas aeruginosa [17]) was 2 µg/mL. For the same compound, the Ratio (Pseudomonas aeruginosa [18]) was >128, the MAC (Acinetobacter baumannii [19]) was 0.125 µg/mL and the Ratio (Acinetobacter baumannii [20]) was >256. For the same compound, the MIC (Acinetobacter baumannii [21]) was > 64 µg/mL, the MAC (Acinetobacter baumannii [22]) was 0.5 µg/mL and the Ratio (Acinetobacter baumannii [23]) was >128.

`CCCNC(=N)NCCCCCCCCN(CCCCCCCCNC(=N)N)C(=O)N(CCCCCCCCNC(=N)N)CCCCCCCCNC(=N)NCCC.O=C(O)C(F)(F)F` showed an MIC (Bacillus subtilis [1]) of 1 µg/mL, an MIC (Enterococcus faecalis [2]) of 1 µg/mL and an MIC (Streptococcus pyogenes [3]) of 1 µg/mL. The MIC (Staphylococcus aureus [4]) was 0.5 µg/mL, the MIC (Escherichia coli [5]) was 0.5 µg/mL and the MIC (Klebsiella pneumoniae [6]) was 1 µg/mL. The MIC (Acinetobacter baumannii [11]) was 8 µg/mL and the MIC (Pseudomonas aeruginosa [12]) was 8 µg/mL.

`CCCCNC(=N)NCCCCCCCCN(CCCCCCCCNC(=N)N)C(=O)N(CCCCCCCCNC(=N)N)CCCCCCCCNC(=N)NCCCC.O=C(O)C(F)(F)F` was tested, and the MIC (Bacillus subtilis [1]) was 1 µg/mL, the MIC (Enterococcus faecalis [2]) was 2 µg/mL and the MIC (Streptococcus pyogenes [3]) was 2 µg/mL. For the same compound, the MIC (Staphylococcus aureus [4]) was 1 µg/mL, the MIC (Escherichia coli [5]) was 2 µg/mL and the MIC (Klebsiella pneumoniae [6]) was 2 µg/mL. The MIC (Acinetobacter baumannii [11]) was 4 µg/mL and the MIC (Pseudomonas aeruginosa [12]) was 8 µg/mL.

Work on `CC(C)NC(=N)NCCCCCCCCN(CCCCCCCCNC(=N)N)C(=O)N(CCCCCCCCNC(=N)N)CCCCCCCCNC(=N)NC(C)C.O=C(O)C(F)(F)F` yielded an MIC (Bacillus subtilis [1]) of 0.5 µg/mL, an MIC (Enterococcus faecalis [2]) of 0.5 µg/mL and an MIC (Streptococcus pyogenes [3]) of 0.5 µg/mL. For the same compound, the MIC (Staphylococcus aureus [4]) was 0.25 µg/mL, the MIC (Escherichia coli [5]) was 0.5 µg/mL and the MIC (Klebsiella pneumoniae [6]) was 1 µg/mL. The MIC (Acinetobacter baumannii [11]) was 8 µg/mL and the MIC (Pseudomonas aeruginosa [12]) was 8 µg/mL.

`N=C(N)NCCCCCCCN(CCCCCCCNC(=N)NCC1CC1)C(=O)N(CCCCCCCNC(=N)N)CCCCCCCNC(=N)NCC1CC1.O=C(O)C(F)(F)F` was tested, and the MIC (Bacillus subtilis [1]) was 2 µg/mL, the MIC (Enterococcus faecalis [2]) was 8 µg/mL and the MIC (Streptococcus pyogenes [3]) was 4 µg/mL. The MIC (Staphylococcus aureus [4]) was 2 µg/mL, the MIC (Escherichia coli [5]) was 8 µg/mL and the MIC (Klebsiella pneumoniae [6]) was 8 µg/mL. The MIC (Acinetobacter baumannii [11]) was 32 µg/mL and the MIC (Pseudomonas aeruginosa [12]) was 32 µg/mL.
